Converted amounts (≈) assume the structure as drawn.
Legend:
Escherichia coli [1] = experiment: In vitro antibacterial activity against Escherichia coli ATCC 25922; assay type: functional
Proteus mirabilis = experiment: In vitro antibacterial activity against Proteus mirabilis OBT 505; assay type: functional
Enterococcus faecalis [2] = experiment: In vitro antibacterial activity against Enterococcus faecalis LEP Br; assay type: functional
Haemophilus influenzae = experiment: In vitro antibacterial activity against Haemophilus influenzae; assay type: functional
Enterobacter cloacae = experiment: In vitro antibacterial activity against Enterobacter cloacae OMNFI 174; assay type: functional
Staphylococcus aureus [3] = experiment: In vitro antibacterial activity against Staphylococcus aureus ATCC 29213; assay type: functional
Enterococcus faecalis [4] = experiment: In vitro antibacterial activity against Enterococcus faecalis UCMC 39690; assay type: functional
Staphylococcus aureus [5] = experiment: In vitro antibacterial activity against Staphylococcus aureus M-R POMM 6214; assay type: functional
Proteus vulgaris = experiment: In vitro antibacterial activity against Proteus vulgaris CNUR 6; assay type: functional
Escherichia coli [6] = experiment: In vitro antibacterial activity against Escherichia coli 120; assay type: functional
Escherichia coli [7] = experiment: In vitro antibacterial activity against Escherichia coliCPX-R OBT 431; assay type: functional
DNA gyrase = DNA gyrase (Escherichia coli, UniProt P0AES4+P0AES6); experiment: Inhibitory effect against Escherichia coli Gyrase in Supercoiling assay; assay type: protein-complex assay
Klebsiella pneumoniae = experiment: In vitro antibacterial activity against Klebsiella pneumoniae ATCC 10031; assay type: functional
Staphylococcus aureus [8] = experiment: In vitro antibacterial activity against Staphylococcus aureus MPR 5; assay type: functional
Streptococcus pneumoniae = experiment: In vitro antibacterial activity against Streptococcus pneumoniae I 0.43; assay type: functional
Streptococcus pyogenes = experiment: In vitro antibacterial activity against Streptococcus pyogenes OMNFI BI; assay type: functional
[9] = Mean MIC against gram negative; assay type: functional
[10] = Mean MIC against gram positive; assay type: functional
Pseudomonas aeruginosa [11] = experiment: In vitro antibacterial activity against Pseudomonas aeruginosa OBT 307; assay type: functional
Pseudomonas aeruginosa [12] = experiment: In vitro antibacterial activity against Pseudomonas aeruginosa […] 9027; assay type: functional
Staphylococcus aureus [13] = experiment: In vitro antibacterial activity against Staphylococcus aureus CPX-R OBT 687; assay type: functional

| Structure (SMILES) | MIC (Escherichia coli [1]) [µg/mL] | MIC (Proteus mirabilis) [µg/mL] | MIC (Enterococcus faecalis [2]) [µg/mL] | MIC (Haemophilus influenzae) [µg/mL] | MIC (Enterobacter cloacae) [µg/mL] | MIC (Staphylococcus aureus [3]) [µg/mL] | MIC (Enterococcus faecalis [4]) [µg/mL] | MIC (Staphylococcus aureus [5]) [µg/mL] | MIC (Proteus vulgaris) [µg/mL] | MIC (Escherichia coli [6]) [µg/mL] | MIC (Escherichia coli [7]) [µg/mL] | IC50 (DNA gyrase) [µM] | MIC (Klebsiella pneumoniae) [µg/mL] | MIC (Staphylococcus aureus [8]) [µg/mL] | MIC (Streptococcus pneumoniae) [µg/mL] | MIC (Streptococcus pyogenes) [µg/mL] | MIC [10] [µg/mL] | MIC (Pseudomonas aeruginosa [11]) [µg/mL] | MIC (Pseudomonas aeruginosa [12]) [µg/mL] | MIC (Staphylococcus aureus [13]) [µg/mL] | other results |
| --- | --- | --- | --- | --- | --- | --- | --- | --- | --- | --- | --- | --- | --- | --- | --- | --- | --- | --- | --- | --- | --- |
| Cc1c(N2CCc3ccccc3C2)c(N)cc2c(=O)c(C(=O)O)cn(C3CC3)c12 | 0.125 (≈ 0.321 µM) | > 16 | 0.25 (≈ 0.642 µM) | < 0.016 | 0.5 (≈ 1.28 µM) | < 0.016 | 0.125 (≈ 0.321 µM) | < 0.016 | 8 (≈ 20.5 µM) | 0.125 (≈ 0.321 µM) | > 16 | 9.24 | 0.03 (≈ 0.077 µM) | < 0.016 | 0.25 (≈ 0.642 µM) | < 0.016 | 0.075 (≈ 0.193 µM) | > 16 | 8 (≈ 20.5 µM) | 2 (≈ 5.14 µM) | MIC [9]: 0.998 µg/mL (≈ 2.56 µM) |
| Cc1c(N2CCCCC2)c(F)cc2c(=O)c(C(=O)O)cn(C3CC3)c12 | < 0.016 | 1 (≈ 2.9 µM) | 0.03 (≈ 0.0871 µM) | < 0.016 | 0.5 (≈ 1.45 µM) | < 0.016 | < 0.016 | < 0.016 | 2 (≈ 5.81 µM) | < 0.016 | 16 (≈ 46.5 µM) | 6.97 | < 0.016 | < 0.016 | < 0.016 | < 0.016 | 0.022 (≈ 0.0639 µM) | 4 (≈ 11.6 µM) | 1 (≈ 2.9 µM) | 0.125 (≈ 0.363 µM) | MIC [9]: 0.29 µg/mL (≈ 0.842 µM) |
| Cc1c(N2CCCCC2)ccc2c(=O)c(C(=O)O)cn(C3CC3)c12 | 0.03 (≈ 0.0919 µM) | 4 (≈ 12.3 µM) | 1 (≈ 3.06 µM) | < 0.016 | 0.25 (≈ 0.766 µM) | < 0.016 | 0.03 (≈ 0.0919 µM) | < 0.016 | 8 (≈ 24.5 µM) | 0.03 (≈ 0.0919 µM) | > 16 | 10.1 | < 0.016 | < 0.016 | < 0.016 | 0.03 (≈ 0.0919 µM) | 0.052 (≈ 0.159 µM) | 16 (≈ 49 µM) | 4 (≈ 12.3 µM) | 1 (≈ 3.06 µM) | MIC [9]: 0.534 µg/mL (≈ 1.64 µM) |
| Cc1c(N2CCc3ccccc3C2)ccc2c(=O)c(C(=O)O)cn(C3CC3)c12 | 1 (≈ 2.67 µM) | > 16 | 1 (≈ 2.67 µM) | 0.06 (≈ 0.16 µM) | 0.03 (≈ 0.0801 µM) | < 0.016 | 0.5 (≈ 1.34 µM) | 0.25 (≈ 0.668 µM) | > 16 | 2 (≈ 5.34 µM) | > 16 | 20.8 | 0.125 (≈ 0.334 µM) | 0.03 (≈ 0.0801 µM) | 1 (≈ 2.67 µM) | 0.25 (≈ 0.668 µM) | 0.272 (≈ 0.726 µM) | > 16 | > 16 | 2 (≈ 5.34 µM) | MIC [9]: 1.85 µg/mL (≈ 4.94 µM) |
| Cc1c(N2CCN(C)CC2)ccc2c(=O)c(C(=O)O)cn(C3CC3)c12 | 0.06 (≈ 0.176 µM) | 2 (≈ 5.86 µM) | 2 (≈ 5.86 µM) | 0.06 (≈ 0.176 µM) | 0.25 (≈ 0.732 µM) | 0.25 (≈ 0.732 µM) | 1 (≈ 2.93 µM) | 0.5 (≈ 1.46 µM) | 8 (≈ 23.4 µM) | 0.06 (≈ 0.176 µM) | > 16 | 83.5 | < 0.016 | 0.25 (≈ 0.732 µM) | 2 (≈ 5.86 µM) | 2 (≈ 5.86 µM) | 1.09 (≈ 3.19 µM) | 16 (≈ 46.9 µM) | 2 (≈ 5.86 µM) | 8 (≈ 23.4 µM) | Mean MIC [10]: 0.609 µg/mL |
| Cc1c(N2CCN(C)CC2)c(F)cc2c(=O)c(C(=O)O)cn(C3CC3)c12 | < 0.016 | 0.5 (≈ 1.39 µM) | 0.25 (≈ 0.696 µM) | < 0.016 | 0.125 (≈ 0.348 µM) | 0.125 (≈ 0.348 µM) | 0.271 (≈ 0.754 µM) | 0.125 (≈ 0.348 µM) | 0.5 (≈ 1.39 µM) | < 0.016 | 4 (≈ 11.1 µM) | 16.4 | < 0.016 | 0.06 (≈ 0.167 µM) | 1 (≈ 2.78 µM) | 0.25 (≈ 0.696 µM) | 0.271 (≈ 0.754 µM) | 0.2 (≈ 0.556 µM) | 0.5 (≈ 1.39 µM) | 2 (≈ 5.56 µM) | MIC [9]: 0.155 µg/mL (≈ 0.431 µM) |
| CN1CCN(c2cc3c(cc2F)c(=O)c(C(=O)O)cn3C2CC2)CC1 | < 0.016 | 0.25 (≈ 0.724 µM) | 0.5 (≈ 1.45 µM) | < 0.016 | < 0.016 | 0.125 (≈ 0.362 µM) | 0.25 (≈ 0.724 µM) | 1 (≈ 2.9 µM) | 0.5 (≈ 1.45 µM) | < 0.016 | > 16 | 4.34 | < 0.016 | 0.125 (≈ 0.362 µM) | 0.5 (≈ 1.45 µM) | 2 (≈ 5.79 µM) | 0.648 (≈ 1.88 µM) | 0.25 (≈ 0.724 µM) | 0.5 (≈ 1.45 µM) | 16 (≈ 46.3 µM) | MIC [9]: 0.11 µg/mL (≈ 0.318 µM) |
| O=C(O)c1cn(C2CC2)c2cc(N3CCNCC3)c(F)cc2c1=O [CIPROFLOXACIN] | < 0.016 | 0.06 (≈ 0.181 µM) | 1 (≈ 3.02 µM) | < 0.016 |  | 0.5 (≈ 1.51 µM) | 0.5 (≈ 1.51 µM) | 1 (≈ 3.02 µM) | 0.5 (≈ 1.51 µM) | < 0.016 |  |  | < 0.016 | 0.25 (≈ 0.754 µM) | 1 (≈ 3.02 µM) | 0.5 (≈ 1.51 µM) | 0.917 (≈ 2.77 µM) | 1 (≈ 3.02 µM) | 0.06 (≈ 0.181 µM) | > 16 | MIC [9]: 0.083 µg/mL (≈ 0.25 µM) |

Reference: ChEMBL document CHEMBL1129595, “Potent 6-desfluoro-8-methylquinolones as new lead compounds in antibacterial chemotherapy” (J Med Chem, 1996)
